Data published in US11236047B2 (ASTEX THERAPEUTICS LIMITED, priority 2017, dated 2022).
Like-named read-outs stand apart in the source and are kept apart here.

Tests used:
MDM2-p53 interaction = MDM2-p53 interaction (Homo sapiens (Human), UniProt Q00987); conditions: for inhibition at 0.001 µM: read-out: MDM2 % inhibition @0.0010
SJSA-1 cells = experiment: Protocol B: SJSA-1 CellTiter-Glo luminescent cell viability assay
SN40R2 cells = experiment: Protocol B: SN40R2 CellTiter-Glo luminescent cell viability assay; conditions: for inhibition at 10 µM: read-out: SN40R2 % inhibition at 10; for IC50: read-out: SN40R2 IC50 (μM) (Protocol B)
[1] = read-out: SJSA1 IC50, Protocol B, SJSA-1
[2] = Homo sapiens, SJSA-1, read-out: SJSA1 IC50 (μM), Protocol B, SJSA-1
[3] = Homo sapiens, SJSA-1, read-out: SJSA1 IC50 (μM) (Protocol B), SJSA-1, Protocol B

Chain of MDM2-p53 interaction (Q00987 whole entry): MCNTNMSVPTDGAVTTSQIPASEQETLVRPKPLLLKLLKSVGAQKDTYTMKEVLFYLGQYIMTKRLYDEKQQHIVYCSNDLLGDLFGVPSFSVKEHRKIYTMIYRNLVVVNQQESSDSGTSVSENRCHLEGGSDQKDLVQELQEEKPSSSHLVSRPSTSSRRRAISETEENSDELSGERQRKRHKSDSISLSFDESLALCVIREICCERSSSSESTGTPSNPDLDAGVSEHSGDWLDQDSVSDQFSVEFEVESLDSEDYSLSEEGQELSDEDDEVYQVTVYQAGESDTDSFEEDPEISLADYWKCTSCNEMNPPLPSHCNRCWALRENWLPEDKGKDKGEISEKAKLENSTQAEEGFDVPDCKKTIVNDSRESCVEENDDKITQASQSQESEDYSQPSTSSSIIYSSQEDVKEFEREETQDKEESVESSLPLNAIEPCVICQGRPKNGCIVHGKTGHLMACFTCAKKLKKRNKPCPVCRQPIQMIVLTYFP

Compound	inhibition at 10 µM (SN40R2 cells) [%]	IC50 (SJSA-1 cells; [2]) [µM]	other results
CO[C@]1(c2ccc(Cl)cc2)c2ccc(C(C)(O)C(=O)NCCN(C)C)cc2C(=O)N1Cc1ccc(Cl)cn1 (single isomer, unassigned) [Example 149]	–	–	MDM2 % at stated concentration (MDM2-p53 interaction; at 1.0 μM): 53%@1.0
CO[C@]1(c2ccc(Cl)cc2)c2ccc(C(C)(O)C(=O)NCCN(C)C)cc2C(=O)N1Cc1ccc(Cl)cn1 (single isomer, unassigned) [Example 150]	–	–	MDM2 % at stated concentration (MDM2-p53 interaction; at 0.10 μM): 49%@0.10
CC(=O)N1CCC(C(C)(O)c2cc(F)c3c(c2)C(=O)N(Cc2ccc(Cl)cn2)[C@@]3(OCC2(C#N)CC2)c2ccc(Cl)cc2)CC1 (single isomer, unassigned) [Example 301]	–	–	MDM2 % at stated concentration (MDM2-p53 interaction): 75%@0.0010
Cn1cc(C(C)(O)c2cc(F)c3c(c2)C(=O)N(Cc2ccc(Cl)c[n+]2[O-])[C@@]3(OCC2(CO)CC2)c2ccc(Cl)cc2)cn1 (single isomer, unassigned) [Example 407]	–	–	MDM2 % at stated concentration (MDM2-p53 interaction): 62%@0.0010
CO[C@]1(c2ccc(Cl)cc2)c2c(F)cc(C(C)(O)c3cnn(C4CN(C(=O)OC(C)(C)C)C4)c3)cc2C(=O)N1Cc1ccc(Cl)cn1 (single isomer, unassigned) [Example 458]	–	–	inhibition at 0.01 µM (MDM2-p53 interaction; read-out: MDM2 % inhibition @0.010): 44%
CCC(O)(c1cc(F)c2c(c1)C(=O)N(Cc1ccc(C#N)cn1)[C@@]2(OC[C@@H](C)O)c1ccc(Cl)cc1)C1(F)CCOCC1 (single isomer, unassigned) [Example 497]	–	–	inhibition at 0.001 µM (MDM2-p53 interaction): 83%
CCC(O)(c1cc(F)c2c(c1)C(=O)N(Cc1ccc(C#N)cn1)[C@@]2(OCCO)c1ccc(Cl)cc1)C1(F)CCOCC1 (single isomer, unassigned) [Example 499]	–	–	inhibition at 0.001 µM (MDM2-p53 interaction): 68%
CCC(O)(CN1CCN(C)CC1)c1cc(F)c2c(c1)C(=O)N(Cc1ncc(Cl)cn1)[C@@]2(OCC1(C#N)CC1)c1ccc(Cl)cc1 (single isomer, unassigned) [Example 534]	44	–	IC50 (SJSA-1 cells; [1]): 0.7 µM
[2H]C([2H])(O)C1(C([2H])([2H])O[C@]2(c3ccc(Cl)cc3)c3c(F)cc(C(C)(O)CC)cc3C(=O)N2Cc2ncc(C#N)cn2)CC1 (single isomer, unassigned) [Example 576]	5	0.14	–
CO[C@]1(c2ccc(Cl)cc2)c2c(F)cc(C(C)(O)c3cn(C)c(C)n3)cc2C(=O)N1Cc1ccc(Cl)cn1 (stereo partly drawn) [Example 162, (3R)-3-(4-Chlorophenyl)-2-[(5-chloropyridin-2-yl)methyl]-6-[1-(1,2-dimethyl-1H-imidazol-4-yl)-1-hydroxyethyl]-4-fluoro-3-methoxy-2,3-dihydro-1H-isoindol-1-one]	–	–	IC50 (SJSA-1 cells; read-out: SJSA1 IC50 (μM) (Protocol B), SJSA-1, Protocol B): 0.22 µM; IC50 (SN40R2 cells): 13 µM
CO[C@]1(c2ccc(Cl)cc2)c2c(F)cc(C(C)(O)C3CN(C)C3)cc2C(=O)N1Cc1ccc(Cl)cn1 (stereo partly drawn) [Example 307, (3R)-3-(4-chlorophenyl)-2-[(5-chloropyridin-2-yl)methyl]-4-fluoro-6-[1-hydroxy-1-(1-methylazetidin-3-yl)ethyl]-3-methoxy-2,3-dihydro-1H-isoindol-1-one]	–	–	IC50 (SJSA-1 cells; [3]): 1.9 µM; IC50 (SN40R2 cells): 11 µM
Cn1cc(C(C)(O)c2cc(F)c3c(c2)C(=O)N(Cc2ccc(Cl)cn2)[C@@]3(OCC2(CO)CC2)c2ccc(Cl)cc2)cn1 (stereo partly drawn) [Example 346, (3R)-3-(4-chlorophenyl)-2-[(5-chloropyridin-2-yl)methyl]-4-fluoro-6-[1-hydroxy-1-(1-methyl-1H-pyrazol-4-yl)ethyl]-3-{[1-(hydroxymethyl)cyclopropyl]methoxy}-2,3-dihydro-1H-isoindol-1-one]	–	–	IC50 (SJSA-1 cells; [3]): 0.012 µM; IC50 (SN40R2 cells): 12 µM
CC(O)(c1cc(F)c2c(c1)C(=O)N(Cc1ncc(Cl)cn1)[C@@]2(OCC1(CO)CC1)c1ccc(Cl)cc1)[C@H]1CC[C@H](O)CC1 (stereo partly drawn) [Example 401, (3R)-3-(4-chlorophenyl)-2-[(5-chloropyrimidin-2-yl)methyl]-4-fluoro-6-{1-hydroxy-1-[trans-4-hydroxycyclohexyl]ethyl}-3-{[1-(hydroxymethyl)cyclopropyl]methoxy}-2,3-dihydro-1H-isoindol-1-one]	6	–	IC50 (SJSA-1 cells; [1]): 0.0098 µM
CCC(O)(c1cc(F)c2c(c1)C(=O)N(Cc1ccc(C#N)cn1)[C@@]2(OCC1(F)COC1)c1ccc(Cl)cc1)c1cn(C)cn1 (stereo partly drawn) [Example 435, 6-{[(1R)-1-(4-chlorophenyl)-7-fluoro-1-[(3-fluorooxetan-3-yl)methoxy]-5-[1-hydroxy-1-(1-methyl-1H-imidazol-4-yl)propyl]-3-oxo-2,3-dihydro-1H-isoindol-2-yl]methyl}pyridine-3-carbonitrile]	0	0.015	–
[2H]C([2H])(O)C1(C([2H])([2H])O[C@]2(c3ccc(Cl)cc3)c3c(F)cc(C(O)(CC)c4cn(C)cn4)cc3C(=O)N2Cc2ccc(C#N)cn2)CC1 (stereo partly drawn) [Example 439, 6-{[(1R)-1-(4-chlorophenyl)-7-fluoro-1-({1-[hydroxy(^2H2)methyl]cyclopropyl}(^2H2)methoxy)-5-[1-hydroxy-1-(1-methyl-1H-imidazol-4-yl)propyl]-3-oxo-2,3-dihydro-1H-isoindol-2-yl]methyl}pyridine-3-carbonitrile]	3	–	IC50 (SJSA-1 cells; [1]): 0.03 µM
[2H]C([2H])(O)C1(C([2H])([2H])O[C@]2(c3ccc(Cl)cc3)c3c(F)cc(C(C)(C)C4(F)CCOCC4)cc3C(=O)N2Cc2ncc(Cl)cn2)CC1 [Example 447, (3R)-3-(4-Chlorophenyl)-2-[(5-chloropyrimidin-2-yl)methyl]-4-fluoro-6-[1-(4-fluorooxan-4-yl)-1-hydroxyethyl]-3-({1-[hydroxy(^2H2)methyl]cyclopropyl}(^2H2)methoxy)-2,3-dihydro-1H-isoindol-1-one]	10	0.011	–
CCC(O)(c1cc(F)c2c(c1)C(=O)N(Cc1ncc(Cl)cn1)[C@@]2(O[C@H]1C[C@@H](O)C1)c1ccc(Cl)cc1)c1cn(C)cn1 (stereo partly drawn) [Example 464, (3R)-3-(4-chlorophenyl)-2-[(5-chloropyrimidin-2-yl)methyl]-4-fluoro-6-[1-hydroxy-1-(1-methyl-1H-imidazol-4-yl)propyl]-3-[cis-3-hydroxycyclobutoxy]-2,3-dihydro-1H-isoindol-1-one]	46	0.18	–
Cn1cnc(C(C)(O)c2cc(F)c3c(c2)C(=O)N(Cc2ncc(C#N)cn2)[C@@]3(OCC2(F)COC2)c2ccc(Cl)cc2)c1 (stereo partly drawn) [Example 468, 2-{[(1R)-1-(4-chlorophenyl)-7-fluoro-1-[(3-fluorooxetan-3-yl)methoxy]-5-[1-hydroxy-1-(1-methyl-1H-imidazol-4-yl)ethyl]-3-oxo-2,3-dihydro-1H-isoindol-2-yl]methyl}pyrimidine-5-carbonitrile]	2	0.48	–
CCC(O)(c1cc(F)c2c(c1)C(=O)N(Cc1ncc(C#N)cn1)[C@@]2(OCC1(F)COC1)c1ccc(Cl)cc1)c1cn(C)cn1 (stereo partly drawn) [Example 470, 2-{[(1R)-1-(4-chlorophenyl)-7-fluoro-1-[(3-fluorooxetan-3-yl)methoxy]-5-[1-hydroxy-1-(1-methyl-1H-imidazol-4-yl)propyl]-3-oxo-2,3-dihydro-1H-isoindol-2-yl]methyl}pyrimidine-5-carbonitrile]	3	–	IC50 (SJSA-1 cells; [1]): 0.1 µM
CCC(O)(c1cc(F)c2c(c1)C(=O)N(Cc1ncc(C#N)cn1)[C@@]2(O[C@H]1CCOC1)c1ccc(Cl)cc1)c1ccn(C)n1 (stereo partly drawn) [Example 490, 2-{[(1R)-1-(4-chlorophenyl)-7-fluoro-5-[1-hydroxy-1-(1-methyl-1H-pyrazol-3-yl)propyl]-3-oxo-1-[(3S)-oxolan-3-yloxy]-2,3-dihydro-1H-isoindol-2-yl]methyl}pyrimidine-5-carbonitrile]	0	–	IC50 (SJSA-1 cells; [1]): 0.27 µM
CC[C@@](O)(c1cc(F)c2c(c1)C(=O)N(Cc1ncc(Cl)cn1)[C@@]2(OCCO)c1ccc(Cl)cc1)C1(F)CCOCC1 [Example 501, (3R)-3-(4-chlorophenyl)-2-[(5-chloropyrimidin-2-yl)methyl]-4-fluoro-6-[(1R)-1-(4-fluorooxan-4-yl)-1-hydroxypropyl]-3-(2-hydroxyethoxy)-2,3-dihydro-1H-isoindol-1-one]	–	0.022	inhibition at 3 µM (SN40R2 cells; read-out: SN40R2 % inhibition at 3): 8%
CC[C@@](O)(c1cc(F)c2c(c1)C(=O)N(Cc1ncc(C#N)cn1)[C@@]2(OCCO)c1ccc(Cl)cc1)C1(F)CCOCC1 [Example 509, 2-{[(1R)-1-(4-chlorophenyl)-7-fluoro-5-[(1R)-1-(4-fluorooxan-4-yl)-1-hydroxypropyl]-1-(2-hydroxyethoxy)-3-oxo-2,3-dihydro-1H-isoindol-2-yl]methyl}pyrimidine-5-carbonitrile]	6	0.042	–
CCC(O)(c1cc(F)c2c(c1)C(=O)N(Cc1ncc(C#N)cn1)[C@@]2(OC[C@@H](C)O)c1ccc(Cl)cc1)[C@H]1CC[C@H](O)CC1 (stereo partly drawn) [Example 512, 2-{[(1R)-1-(4-chlorophenyl)-7-fluoro-5-{1-hydroxy-1-[trans-4-hydroxycyclohexyl]propyl}-1-[(2R)-2-hydroxypropoxy]-3-oxo-2,3-dihydro-1H-isoindol-2-yl]methyl}pyrimidine-5-carbonitrile]	5	0.025	–
CC(O)(c1cc(F)c2c(c1)C(=O)N(Cc1ncc(Cl)cn1)[C@@]2(OCCO)c1ccc(Cl)cc1)C1(F)CCOCC1 (stereo partly drawn) [Example 578, (3R)-3-(4-chlorophenyl)-2-[(5-chloropyrimidin-2-yl)methyl]-4-fluoro-6-[1-(4-fluorooxan-4-yl)-1-hydroxyethyl]-3-(2-hydroxyethoxy)-2,3-dihydro-1H-isoindol-1-one]	4	0.12	–
